IC50 data for 6 compounds are collected here from ChEMBL document CHEMBL1149514, “Tetrahydrofluorenones with conformationally restricted side chains as selective estrogen receptor beta ligands” (Bioorg Med Chem Lett, 2006).

By IC50 is commonly meant the concentration needed to halve the response being measured. Higher therefore signals weaker potency in that assay.

One test concerns the target T1, Estrogen receptor (Homo sapiens, UniProt P03372).
T1 sequence (P03372 whole entry): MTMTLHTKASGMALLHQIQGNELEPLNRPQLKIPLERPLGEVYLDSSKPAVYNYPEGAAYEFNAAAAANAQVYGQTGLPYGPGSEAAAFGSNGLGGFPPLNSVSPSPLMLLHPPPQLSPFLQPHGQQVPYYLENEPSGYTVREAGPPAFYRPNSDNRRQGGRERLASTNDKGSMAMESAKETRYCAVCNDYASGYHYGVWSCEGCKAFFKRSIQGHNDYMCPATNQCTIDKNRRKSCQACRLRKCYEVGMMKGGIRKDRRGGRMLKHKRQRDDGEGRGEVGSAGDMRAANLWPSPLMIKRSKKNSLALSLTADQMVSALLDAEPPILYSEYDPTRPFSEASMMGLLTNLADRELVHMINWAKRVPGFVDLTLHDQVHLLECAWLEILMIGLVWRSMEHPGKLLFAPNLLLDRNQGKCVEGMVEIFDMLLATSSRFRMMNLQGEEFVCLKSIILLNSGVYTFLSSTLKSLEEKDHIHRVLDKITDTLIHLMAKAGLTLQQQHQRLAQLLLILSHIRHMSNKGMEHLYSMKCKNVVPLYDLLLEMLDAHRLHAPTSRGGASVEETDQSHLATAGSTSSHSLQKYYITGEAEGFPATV

The target of another test is Estrogen receptor beta (Homo sapiens, UniProt Q92731).
Sequence of Estrogen receptor beta (Q92731 whole entry): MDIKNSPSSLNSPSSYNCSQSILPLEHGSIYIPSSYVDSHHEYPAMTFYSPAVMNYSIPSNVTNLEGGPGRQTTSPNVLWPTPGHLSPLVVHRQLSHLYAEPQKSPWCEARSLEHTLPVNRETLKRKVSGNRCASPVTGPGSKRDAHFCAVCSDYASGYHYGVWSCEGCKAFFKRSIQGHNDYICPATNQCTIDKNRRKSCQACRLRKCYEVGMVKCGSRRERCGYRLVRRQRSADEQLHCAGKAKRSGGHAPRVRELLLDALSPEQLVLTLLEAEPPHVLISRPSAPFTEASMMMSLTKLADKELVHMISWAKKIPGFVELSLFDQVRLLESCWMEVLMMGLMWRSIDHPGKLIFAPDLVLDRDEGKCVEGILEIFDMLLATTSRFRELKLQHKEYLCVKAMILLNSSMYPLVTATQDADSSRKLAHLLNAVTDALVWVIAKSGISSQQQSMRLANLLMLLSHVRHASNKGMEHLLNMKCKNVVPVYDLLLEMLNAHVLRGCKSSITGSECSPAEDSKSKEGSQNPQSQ

Description for Estrogen receptor beta: Binding affinity to human recombinant ERbeta by scintillation proximity assay

For the compound `CCC[C@@H]1CC[C@@H]2C[C@]13Cc1cc(O)ccc1C3=C(C)C2=O`, the figures for the IC50 against Estrogen receptor and against Estrogen receptor beta were 84 nM and 5 nM, respectively.
Take `CCC[C@H]1CC[C@@H]2C[C@]13Cc1cc(O)ccc1C3=C(C)C2=O`: the IC50 was found to be 605 nM on Estrogen receptor and 141 nM against Estrogen receptor beta.
In the case of `CC1=C2c3ccc(O)cc3C[C@@]23CC[C@H](C3)C1=O`, the results for the IC50 against Estrogen receptor and on Estrogen receptor beta were 793 nM and 12 nM, respectively.
Taken in the same sequence, the figures for `CC1=C2c3ccc(O)cc3C[C@@]23CCC[C@H](C3)C1=O` were 414 nM and 11 nM.
Consider `CC[C@@H]1CC[C@@H]2C[C@]13Cc1cc(O)ccc1C3=C(C)C2=O`, for which the IC50 at Estrogen receptor came out at 146 nM; at Estrogen receptor beta, 5 nM.
The like results for `CC[C@H]1CC[C@@H]2C[C@]13Cc1cc(O)ccc1C3=C(C)C2=O` were, in that order, 310 nM and 45 nM.
